The values that follow come from US20230096203A1, “METHODS FOR DETECTING FOOD ALLERGIES” (THE REGENTS OF THE UNIVERSITY OF MICHIGAN, priority 2020, published 2023).

Each structure is given as a SMILES string.

The subject of the experiment is CFTR-dependent Cl— transport. The experiment can be described thus: Ussing chamber: forskolin-induced short-circuit current of jejunum segments pre-incubated ex vivo with ion channel blockers. Conditions: jejunum of OVA-treated mice; DIDS (100 μM) or CFTRInh172 (20 μM) in mucosal reservoir. Also noted: species or system BALB/c wild-type (WT) mice. How it is done: Oral Antigen-Induced Intestinal Anaphylaxis. 4-8-week-old mice were sensitized to ovalbumin (OVA) ([…] of OVA/1 mg of alum in sterile saline by intraperitoneal (i.p.) injection) and received repeated oral gavage (o.g.) challenge with OVA (250 μl of OVA (50 mg) in saline or 250 μl of saline (vehicle)) as previously described (Ahrens et al., American Journal of Pathology 180, 1535-1546, doi:10.101/j.ajpath.2011.12.036 (2012)). Prior to each o.g. challenge, mice were deprived of food for 4-5 hours. Rectal temperatures were measured prior to challenge and then every 15 minutes for 60 minutes. […] Evidence of secretory diarrhea was assessed by determination of short-circuit current (Isc) of small intestine (Si) segments ex vivo in a Ussing chamber system up to 60 minutes following o.g. challenge. […]
Ussing chambers. […] The transepithelial potential difference (PD) was detected with two paired electrodes that contained 4% agar in 3 M KCl. […] To establish equilibrium, PD was continuously monitored under open-circuit conditions for 15 min. […] For ion conductance experiments, changes in Isc were determined for the cumulative addition of forskolin and acetylcholine to the serosal reservoir. After the peak response to the final concentration of each agonist was recorded, the Krebs buffer on each side of the chamber was replaced, and the tissue was allowed to equilibrate for 30 minutes. […]

As to `O=C(O)c1ccc(/C=C2\SC(=S)N(c3cccc(C(F)(F)F)c3)C2=O)cc1` [CFTR^inh172], the “Forskolin-induced ΔIsc” value is recorded as “abrogated”.

For the molecule `O=S(=O)(O)c1cc(N=C=S)ccc1C=Cc1ccc(N=C=S)cc1S(=O)(=O)O` [DIDS, 4,4′-Diisothiocyanatostilbene-2,2′-disulfonate], the “Forskolin-induced ΔIsc” value is “not”.
